From paper PMC7559897, “Designed Antimicrobial Peptides Against Trauma-Related Cutaneous Invasive Fungal Wound Infections” (Journal of Fungi, 2020)
In brackets after ≈: the same amount, converted by molar mass. Bridge positions count the residues as written; N and C are the ends. Peptide text beside a SMILES is read from it.

Columns and labels:
K. pneumonia ATCC 10031 = type: cell-based, Klebsiella pneumoniae; settings: cation adjusted Mueller-Hinton broth, ~10^6 CFU/mL, 24 h, 37 °C, OD600 <0.1 in at least 3 of 4 wells, 2-128 μg/mL; shaded values previously reported ref 18
Summary of the method: (§1)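 Twofold broth microdilution of dAMPs (0–128 μg/mL) in quadruplicate; bacteria in 2X cation-adjusted Mueller–Hinton broth at ~10^6 CFU/mL, fungus in potato dextrose broth. Plates kept 24 h at 37 °C; MIC taken from OD600 <0.1 in ≥3 of 4 wells.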

K. pneumonia 6069 = type: cell-based, Klebsiella pneumoniae; settings: cation adjusted Mueller-Hinton broth, ~10^6 CFU/mL, 24 h, 37 °C, OD600 <0.1 in at least 3 of 4 wells, 2-128 μg/mL; shaded values previously reported ref 18
Summary of the method: as §1

P. aeruginosa ATCC 27853 = type: cell-based, Pseudomonas aeruginosa; settings: cation adjusted Mueller-Hinton broth, ~10^6 CFU/mL, 24 h, 37 °C, OD600 <0.1 in at least 3 of 4 wells, 2-128 μg/mL; shaded values previously reported ref 18
Summary of the method: as §1

P. aeruginosa ATCC 19660 = type: cell-based, Pseudomonas aeruginosa; settings: cation adjusted Mueller-Hinton broth, ~10^6 CFU/mL, 24 h, 37 °C, OD600 <0.1 in at least 3 of 4 wells, 2-128 μg/mL; shaded values previously reported ref 18
Summary of the method: as §1

P. aeruginosa 6186 = type: cell-based, Pseudomonas aeruginosa; settings: cation adjusted Mueller-Hinton broth, ~10^6 CFU/mL, 24 h, 37 °C, OD600 <0.1 in at least 3 of 4 wells, 2-128 μg/mL; shaded values previously reported ref 18
Summary of the method: as §1

[1] = test system: S. aureus 49525 (Xen36 luciferase); type: cell-based, Staphylococcus aureus; settings: 8 μg/mL, 60 min incubation, bioluminescence, triplicates from two independent experiments
Summary of the method: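 Luciferase-expressing bacteria exposed to 2-fold serial dilutions of peptide in growth medium with 150 μg/mL D-luciferin, triplicate. Bioluminescence imaged at select times versus concurrent vehicle control as a real-time viability read-out.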

L929 fibroblast cells = experiment: Bioluminescent mammalian cytotoxicity assay; type: cell-based, murine; settings: L929 fibroblasts, up to 64 μg/mL, 8 h of exposure, bioluminescence
Protocol: Real-time killing of bacterial cells, P. aeruginosa or S. aureus, and mammalian cytotoxicity to assess dAMP off-target toxicity was evaluated using bioluminescent cells. The L929 fibroblast cells (ATCC, Manassas, VA, USA) were made bioluminescent by transfection with a luciferase gene. Cells (1 × 10^4 cells, 100 μL) were plated in 96-well black-walled plates and the candidate dAMPs were 2-fold serially diluted from specified concentrations in growth medium supplemented with 150 μg/mL D-luciferin. Each concentration was performed in triplicate, with the final volume being 200 μL. Imaging was performed at select times after the addition of the dAMP, and compared to concurrently run vehicle-control, using an IVIS Lumina imaging system (Caliper Life Sciences, Inc., Hopkinton, MA, USA). For imaging, the 96-well plate was positioned on the stage (12.5-cm field of view), with an open emission filter, binning of 4, and f-stop 1 and a 1-min exposure time. Monitoring bioluminescence allows assessment of the kinetics of cellular viability as there is a tight correlation between the bioluminescent signal and cell viability. […]
Figure 2 RP504, RP556 and RP557 induce limited mammalian cell toxicity. […] Cells were plated at 1×10^4 cells/well, allowed to adhere overnight and the specific dAMP added, and cytotoxicity evaluated through 8 h. […]

MRSA 6381 = type: cell-based, Staphylococcus aureus; settings: cation adjusted Mueller-Hinton broth, ~10^6 CFU/mL, 24 h, 37 °C, OD600 <0.1 in at least 3 of 4 wells, 2-128 μg/mL; shaded values previously reported ref 18
Summary of the method: as §1

S. aureus B-767 = type: cell-based, Staphylococcus aureus; settings: cation adjusted Mueller-Hinton broth, ~10^6 CFU/mL, 24 h, 37 °C, OD600 <0.1 in at least 3 of 4 wells, 2-128 μg/mL; shaded values previously reported ref 18
Summary of the method: as §1

S. aureus 6061 = type: cell-based, Staphylococcus aureus; settings: cation adjusted Mueller-Hinton broth, ~10^6 CFU/mL, 24 h, 37 °C, OD600 <0.1 in at least 3 of 4 wells, 2-128 μg/mL; shaded values previously reported ref 18
Summary of the method: as §1

MRSA ATCC 33592 = type: cell-based, Staphylococcus aureus; settings: cation adjusted Mueller-Hinton broth, ~10^6 CFU/mL, 24 h, 37 °C, OD600 <0.1 in at least 3 of 4 wells, 2-128 μg/mL; shaded values previously reported ref 18
Summary of the method: as §1

MRSA 6313 = type: cell-based, Staphylococcus aureus; settings: cation adjusted Mueller-Hinton broth, ~10^6 CFU/mL, 24 h, 37 °C, OD600 <0.1 in at least 3 of 4 wells, 2-128 μg/mL; shaded values previously reported ref 18
Summary of the method: as §1

In the case of `CC[C@H](C)[C@@H]1NC(=O)CNC(=O)[C@H](CCCCN)NC(=O)[C@H](Cc2ccc(O)cc2)NC(=O)[C@@H]2CSSC[C@H](NC1=O)C(=O)N[C@@H](Cc1ccccc1)C(=O)N[C@@H](CCCCN)C(=O)N[C@@H](CCCCN)C(=O)N[C@H](C(=O)N[C@@H](CCCCN)C(N)=O)CSSC[C@H](NC(=O)[C@H](Cc1ccccc1)NC(=O)[C@@H](N)CCCNC(=N)N)C(=O)N[C@@H](Cc1c[nH]c3ccccc13)C(=O)N[C@@H](CCCCN)C(=O)N[C@@H](C(C)C)C(=O)N2` [RP557] (H-RFCWKVCYKGICFKKCK-NH2; disulfide 3-16, 7-12), the “MIC against K. pneumonia ATCC 10031” value (K. pneumonia ATCC 10031) is reported as 8 µg/mL (≈ 3.75 µM), the “MIC against K. pneumonia 6069” value (K. pneumonia 6069) is reported as 4 µg/mL (≈ 1.87 µM) and the “MIC against P. aeruginosa ATCC 27853” value (P. aeruginosa ATCC 27853) is reported as 4 µg/mL (≈ 1.87 µM). For the same compound, the “MIC against P. aeruginosa ATCC 19660” value (P. aeruginosa ATCC 19660) was 4 µg/mL (≈ 1.87 µM), the “MIC against P. aeruginosa 6186” value (P. aeruginosa 6186) was 4 µg/mL (≈ 1.87 µM) and the S. aureus killing [1] was 70%. For the same compound, the “mammalian cell toxicity (in words)” value (L929 fibroblast cells) was “Limited toxicity”, the “MIC against MRSA 6381” value (MRSA 6381) was 4 µg/mL (≈ 1.87 µM) and the “MIC against S. aureus B-767” value (S. aureus B-767) was 4 µg/mL (≈ 1.87 µM). The “MIC against S. aureus 6061” value (S. aureus 6061) was 8 µg/mL (≈ 3.75 µM), the “MIC against MRSA ATCC 33592” value (MRSA ATCC 33592) was 4 µg/mL (≈ 1.87 µM) and the “MIC against MRSA 6313” value (MRSA 6313) was 4 µg/mL (≈ 1.87 µM).
